Data reported in patent publication US8853392B2, “Benzamide mGluR5 positive allosteric modulators and methods of making and using same” (Vanderbilt University, priority 2007, dated 2014).

target: T1, rat mGluR5 (Rattus norvegicus, UniProt P31424); assay: potentiation of mGluR5 response to glutamate, Ca2+ fluorescence (FDSS) in HEK cells transfected with rat mGluR5; assay type: cell-based; details: EC50, Table 1, EC50 for potentiating the mGluR5 receptor; unit inferred
T1 construct: expressed in transfected cells; host or cells: human embryonic kidney (HEK) cells
T1 sequence (P31424 21-1203): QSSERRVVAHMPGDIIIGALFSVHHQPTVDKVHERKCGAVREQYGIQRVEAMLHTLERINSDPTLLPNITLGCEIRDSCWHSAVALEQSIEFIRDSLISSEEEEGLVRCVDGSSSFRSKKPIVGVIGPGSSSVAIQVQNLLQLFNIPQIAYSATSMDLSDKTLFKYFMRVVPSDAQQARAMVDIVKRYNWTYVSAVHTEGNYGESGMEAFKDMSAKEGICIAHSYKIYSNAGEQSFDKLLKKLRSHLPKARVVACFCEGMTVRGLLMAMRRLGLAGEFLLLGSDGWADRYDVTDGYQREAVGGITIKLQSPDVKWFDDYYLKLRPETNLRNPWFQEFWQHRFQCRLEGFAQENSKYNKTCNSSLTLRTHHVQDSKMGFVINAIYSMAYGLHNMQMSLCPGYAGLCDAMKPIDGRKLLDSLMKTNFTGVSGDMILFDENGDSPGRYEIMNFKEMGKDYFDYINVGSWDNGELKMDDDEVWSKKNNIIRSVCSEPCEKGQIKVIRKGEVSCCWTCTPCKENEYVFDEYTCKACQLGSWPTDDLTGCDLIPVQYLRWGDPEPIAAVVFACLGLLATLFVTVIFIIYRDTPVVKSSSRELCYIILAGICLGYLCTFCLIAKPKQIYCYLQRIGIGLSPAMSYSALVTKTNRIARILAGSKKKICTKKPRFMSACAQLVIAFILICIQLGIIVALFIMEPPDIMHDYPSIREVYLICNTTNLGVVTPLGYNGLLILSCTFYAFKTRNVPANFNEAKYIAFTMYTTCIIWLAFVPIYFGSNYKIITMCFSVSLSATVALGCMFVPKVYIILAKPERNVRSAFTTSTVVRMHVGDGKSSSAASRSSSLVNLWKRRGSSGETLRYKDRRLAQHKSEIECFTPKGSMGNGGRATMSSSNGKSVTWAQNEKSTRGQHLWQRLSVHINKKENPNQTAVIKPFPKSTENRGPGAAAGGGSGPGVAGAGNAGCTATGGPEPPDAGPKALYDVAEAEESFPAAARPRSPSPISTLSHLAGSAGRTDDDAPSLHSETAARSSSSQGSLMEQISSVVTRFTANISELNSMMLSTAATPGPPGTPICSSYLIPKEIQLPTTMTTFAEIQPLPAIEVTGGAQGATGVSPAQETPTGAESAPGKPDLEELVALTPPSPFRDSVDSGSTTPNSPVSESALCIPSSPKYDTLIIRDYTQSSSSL
Protocol: Human embryonic kidney (HEK) cells transfected with rat mGluR5 were plated in clear bottom assay plates for assay in a Functional Drug Screening System (FDSS). The cells were loaded with a Ca^2+-sensitive fluorescent dye (e.g., Fluo-4), and the plates were washed and placed in the FDSS instrument. After establishment of a fluorescence baseline for twelve seconds, the compounds of the present invention were added to the cells, and the response in cells was measured. Five minutes later, an mGluR5 agonist (e.g., glutamate, 3,5-dihydroxyphenylglycine, or quisqualate) was added to the cells, and the response of the cells was measured. Potentiation of the agonist response of mGluR5 by the compounds in the present invention was observed as an increase in response to non-maximal concentrations of agonist (here, glutamate) in the presence of compound compared to the response to agonist in the absence of compound.
The above described assay operated in two modes. In the first mode, a range of concentrations of the present compounds were added to cells, followed by a single fixed concentration of agonist. If a compound acted as a potentiator, an EC50 value for potentiation and a maximum extent of potentiation by the compound at this concentration of agonist was determined by non-linear curve fitting. In the second mode, several fixed concentrations of the present compounds were added to various wells on a plate, followed by a range of concentrations of agonist for each concentration of present compound; the EC50 values for the agonist at each concentration of compound were determined by non-linear curve fitting. A decrease in the EC50 value of the agonist with increasing concentrations of the present compounds (a leftward shift of the agonist concentration-response curve) is an indication of the degree of mGluR5 potentiation at a given concentration of the present compound. An increase in the EC50 value of the agonist with increasing concentrations of the present compounds (a rightward shift of the agonist concentration-response curve) is an indication of the degree of mGluR5 antagonism at a given concentration of the present compound. The second mode also indicates whether the present compounds also affect the maximum response to mGluR5 to agonists.
Human embryonic kidney (HEK) cells transfected with rat mGluR5 were plated in clear-bottomed, poly-D-lysine-coated assay plates in glutamate-glutamine-free medium growth and incubated overnight at 37° C. in 5% CO2. The following day, cells were loaded with 2 μM calcium indicator dye, fluo-4 AM, for 1 h at 37° C. Dye was removed and replaced with assay buffer containing 1× Hanks balanced salt solution (Invitrogen, Carlsbad, Calif.), 20 mM HEPES, and 2.5 mM probenecid, pH 7.4. Cell plates were then loaded into the Functional Drug Screening System 6000 (FDSS 6000, Hamamatsu, Japan). After establishment of a fluorescence baseline for twelve seconds, the compounds of the present invention were added to the cells, and the response in cells was measured. Five minutes later, an mGluR5 agonist (e.g., glutamate, 3,5-dihydroxyphenylglycine, or quisqualate) was added to the cells, and the response of the cells was measured during a 1 minute incubation with agonists. Typically, the effect of test compounds of the present invention was on an EC20 concentration of glutamate was measured. All test compounds were dissolved and diluted in 100% DMSO and then serially diluted into assay buffer for a 2.5× stock in 0.25% DMSO; stock compounds were then added to the assay for a final DMSO concentration of 0.1%. Calcium fluorescence measures were recorded as fold over basal fluorescence; raw data was then normalized to the maximal response to agonist. Potentiation of the agonist response of mGluR5 by the compounds in the present invention was observed as an increase in response to non-maximal concentrations of agonist (here, glutamate) in the presence of compound compared to the response to agonist in the absence of compound. […]

CC(=O)C1(c2ccccc2)CCN(C(=O)c2ccc(C#Cc3ccccc3)cc2)CC1 [1-(4-phenyl-1-(4-(phenylethynyl)benzoyl)piperidin-4-yl)ethanone] and N#CC1(c2ccccc2)CCN(C(=O)c2ccc(C#Cc3ccccc3)cc2)CC1 [4-phenyl-1-(4-(phenylethynyl)benzoyl)piperidine-4-carbonitrile] are within 1.5-fold of each other in EC50: 1250 nM for the first, 1140 nM for the second.

same assay, conditions: Table 1, EC50 for potentiating the mGluR5 receptor; unit inferred; read-out: EC50

N#Cc1ccccc1N1CCN(C(=O)c2ccc(C#Cc3ccccc3)cc2)CC1 and O=C(c1ccc(C#Cc2ccccc2)cc1)N1CCN(c2ccccc2F)CC1 [(4-(2-fluorophenyl)piperazin-1-yl)(4-(phenylethynyl)phenyl)methanone] are within 1.5-fold of each other in EC50: 4200 nM for the first, 5140 nM for the second.

O=C(c1ccc(C#Cc2ccccc2)cc1)N1CCC(n2c(=O)[nH]c3ccccc32)CC1 [1-(1-(4-(phenylethynyl)benzoyl)piperidin-4-yl)-1H-benzo[d]imidazol-2(3H)-one] and O=C(c1ccc(C#Cc2ccccc2)cc1)N1CCC(N2CCC2)CC1 [(4-(azetidin-1-yl)piperidin-1-yl)(4-(phenylethynyl)phenyl)methanone] are within 1.5-fold of each other in EC50: 1470 nM for the first, 1110 nM for the second.

Going from COCCCNC(=O)c1ccc(-c2nc(-c3ccc(F)cc3)no2)cc1 [4-(3-(4-fluorophenyl)-1,2,4-oxadiazol-5-yl)-N-(3-methoxypropyl)benzamide] to CCCNC(=O)c1ccc(-c2nc(-c3ccc(F)cc3)no2)cc1 [4-(3-(4-fluorophenyl)-1,2,4-oxadiazol-5-yl)-N-propylbenzamide], the EC50 rises from 1120 nM to 2030 nM (1.8-fold).

Going from CCCNC(=O)c1ccc(-c2nc(-c3ccccc3)no2)cc1 [4-(3-phenyl-1,2,4-oxadiazol-5-yl)-N-propylbenzamide] to CCCNC(=O)c1ccc(C#Cc2ccccc2)cc1 [4-(phenylethynyl)-N-propylbenzamide], the EC50 falls from 2270 nM to 14.7 nM (150-fold).

First: O=C(NCCN1CCCCC1)c1ccc(C#Cc2ccccc2)cc1 [4-(phenylethynyl)-N-(2-(piperidin-1-yl)ethyl)benzamide]
Second: O=C(c1ccc(C#Cc2ccccc2)cc1)N1CCCC(O)C1 (stereo not drawn) [(3-hydroxypiperidin-1-yl)(4-(phenylethynyl)phenyl)methanone]
The EC50 of the first is 13-fold higher: 1790 nM for the first, 134 nM for the second. The second is the more potent here.

Going from O=C(c1ccc(C#Cc2ccccc2)cc1)n1c(=O)n(C2CCNCC2)c2cc(Cl)ccc21 [5-chloro-1-(4-(phenylethynyl)benzoyl)-3-(piperidin-4-yl)-1H-benzo[d]imidazol-2(3H)-one] to O=C(c1ccc(C#Cc2ccccc2)cc1)N1CCC(O)(c2ccc(Cl)cc2)CC1 [(4-(4-chlorophenyl)-4-hydroxypiperidin-1-yl)(4-(phenylethynyl)phenyl)methanone], the EC50 rises from 3720 nM to 6460 nM (1.7-fold). The first is the more potent here.

First: CC1CN(C(=O)c2ccc(C#Cc3ccccc3)cc2)CC(C)O1 (stereo not drawn) [(2,6-dimethylmorpholino)(4-(phenylethynyl)phenyl)methanone]
Second: COCCNC1CCN(C(=O)c2ccc(C#Cc3ccccc3)cc2)CC1 [(4-(2-methoxyethylamino)piperidin-1-yl)(4-(phenylethynyl)phenyl)methanone]
The EC50 of the first is 13-fold lower: 88.9 nM for the first, 1190 nM for the second.

Going from COc1ccccc1N1CCN(C(=O)c2ccc(C#Cc3ccccc3)cc2)CC1 [(4-(2-methoxyphenyl)piperazin-1-yl)(4-(phenylethynyl)phenyl)methanone] to O=C(c1ccc(C#Cc2ccccc2)cc1)N1CCC(O)(c2ccc(Cl)cc2C(F)(F)F)CC1 [(4-(4-chloro-2-(trifluoromethyl)phenyl)-4-hydroxypiperidin-1-yl)(4-(phenylethynyl)phenyl)methanone], the EC50 falls from 2100 nM to 477 nM (4.4-fold). The second is the more potent here.

Going from O=C(c1ccc(C#Cc2ccccc2)cc1)N1CCC(NCCN2CCOCC2)CC1 [(4-(2-morpholinoethylamino)piperidin-1-yl)(4-(phenylethynyl)phenyl)methanone] to CN1CCN(C2CCN(C(=O)c3ccc(C#Cc4ccccc4)cc3)CC2)CC1 [(4-(4-methylpiperazin-1-yl)piperidin-1-yl)(4-(phenylethynyl)phenyl)methanone], the EC50 falls from 383 nM to 132 nM (2.9-fold).

With O=C(c1ccc(-c2nc(-c3ccc(F)cc3)no2)cc1)N1CCN(c2ccncc2)CC1 [(4-(3-(4-fluorophenyl)-1,2,4-oxadiazol-5-yl)phenyl)(4-(pyridin-4-yl)piperazin-1-yl)methanone] the EC50 was 4210 nM.
